Source: patent US9884821B2, “N1-cyclic amine-N5-substituted biguanide derivatives, methods of preparing the same and pharmaceutical composition comprising the same” (IMMUNOMET THERAPEUTICS INC., priority 2013, dated 2018)

Columns and labels:
AMPK = AMPK activation effect (AMPK [pT172] ELISA) in MCF7 cells; assay type: cell-based, human; conditions: 24 hours; for AMPK activation effect (%) 10 μM / AMPK activation effect (%) 50 μM / AMPK activation effect (%) 5 μM: AMPKα Thr172 phosphorylation relative to untreated cells; for AC150: concentration at which AMPK activation reached 150%
Method: ELISA kit (Invitrogen, Catalog No. KH00651).
MCF7 cells were cultured in a DMEM medium supplemented with 10% fatal bovine serum (commercially available from Gibco Life Technologies (US)). Thereafter, the cultured MCF7 cells were put into a 6-well plate with approximately 5×10^5 cells per well, and cultured in an incubator supplied with 5% CO2. Culture media were treated with the derivatives synthesized in the Examples at concentrations of 5, 10 and 50 uM, and then cultured for 24 hours. […] Subsequently, the cells were lysed according to a method presented in the operation manual of the AMPK [pT172] ELISA kit, and 20 μg of a cell lysate was then yielded through protein assay. Thereafter, the AMPK activation effect was obtained by determining a degree of phosphorylation of a 172nd threonine residue (Thr172) of the AMPKα from the cell lysate according to the method presented in the operation manual of the AMPK [pT172] ELISA kit.

HCT116 cells = experiment: Effect of inhibiting cancer cell proliferation (MTT) in HCT116 cells; assay type: cell-based, human; conditions: Homo sapiens, HCT-116, 48 h; for inhibition at 100 µM: read-out: Cell growth inhibition (%) at 100 μM; for inhibition at 25 µM: read-out: Cell growth inhibition (%) at 25 μM
Text: HCT116 cells derived from human colorectal cancer were used, and an effect of inhibiting cancer cell proliferation of the biguanide derivative was confirmed by measuring a concentration value (cell growth inhibition concentration, GIC50) at which cell growth was inhibited by 50% using a 3-(4,5-dimethylthiazol-2-yl)-2,5-diphenyltetrazolium bromide (MTT) reagent.
First, HCT116 cells (purchased from the KCLB) were put on a 96-well plate and cultured in a DMEM medium supplemented with 10% fatal bovine serum (commercially available from Gibco Life Technologies (US)) for 16 hours so that approximately 5,000 cells were counted in each well. Subsequently, to obtain the GIC50 value of each compound, the culture media were treated with 100 μM, 25 μM, 6.25 μM, 1.56 μM or 0.39 μM of the compound, and then cultured for 48 hours. In order to determine whether the cells survived after treatment with the compounds, MTT (commercially available from AMRESCO (US)) was added to the culture media which were then cultured for another 3 hours. Formed formazane crystals were dissolved using dimethyl sulfoxide (DMSO) and the absorbance of the resulting solution was measured at 560 nm. After the 48-hour culture, a ratio of a living cell count on a well plate treated with the compounds synthesized in the Examples to a cell count cultured on a well plate not treated with the compound was indicated as cell viability (%) according to the concentration of each treated compound. The cell viability (%) was used to plot a cell viability curve graph and calculate a concentration (GIC50) value of the compound at which the growth was inhibited by 50%, thereby confirming the inhibition effect of cancer cell proliferation.

| GI50 (HCT116 cells) [µM] | SMILES | AMPK activation effect (%) 10 μM (AMPK) [%] | AMPK activation effect (%) 50 μM (AMPK) [%] | AC150 (AMPK) [µM] | inhibition at 100 µM (HCT116 cells) [%] | AMPK activation effect (%) 5 μM (AMPK) [%] | inhibition at 25 µM (HCT116 cells) [%] |
| --- | --- | --- | --- | --- | --- | --- | --- |
| 54.8 | CC1=CCN(C(=N)NC(=N)Nc2ccc(F)cc2)C1.Cl [Example 20, N1-(3-methyl)-1,2-dihydropyrrole-N5-(4-fluoro)phenyl biguanide hydrochloride] | 83 | 172 | 38.3 | 93.1 | – | – |
| 3.7 | Cl.N=C(NC(=N)N1CC=CCC1)Nc1ccc(Cl)c(C(F)(F)F)c1 [Example 33, N1-1,2,3,6-tetrahydropyridine-N5-(4-chloro, 3-trifluoromethyl)phenyl biguanide hydrochloride] | 992 | – | 0.79 | 99.4 | – | – |
| 6.7 | CC1CCCCN1C(=N)NC(=N)Nc1cccc(OC(F)(F)F)c1.Cl (stereo not shown) [Example 73, N1-(2-methyl)piperidine-N5-(3-trifluoromethoxy)phenyl biguanide hydrochloride] | 384 | – | 2.0 | – | 215 | 100 |
| 26.9 | Cl.N=C(NCc1cccc(C(F)(F)F)c1)NC(=N)N1CC=CCC1 [Example 57, N1-1,2,3,6-tetrahydropyridine-N5-(3-trifluoromethyl)benzyl biguanide hydrochloride] | 279 | 579 | 2.7 | 97.8 | – | – |
| 114 | COc1cccc(NC(=N)NC(=N)N2CC=CC2)c1.Cl [Example 43, N1-1,2-dihydropyrrole-N5-(3-methoxyl)phenyl biguanide hydrochloride] | 200 | 466 | 4.7 | 44.9 | – | – |
| > 100 | COc1ccc(NC(=N)NC(=N)N2CC=CC2)cc1.Cl [Example 42, N1-1,2-dihydropyrrole-N5-(4-methoxyl)phenyl biguanide hydrochloride] | 157 | 210 | 14.7 | 14 | – | – |
| 124 | Cl.N=C(NC(=N)N1CC=CCC1)Nc1ccccc1 [Example 39, N1-1,2,3,6-tetrahydropyridine-N5-phenyl biguanide hydrochloride] | 96 | 138 | 67.2 | 39.8 | – | – |
| 5.8 | CC1CCCCN1C(=N)NC(=N)Nc1ccc(OC(F)(F)F)c(F)c1.Cl (stereo not shown) [Example 76, N1-(2-methyl)piperidine-N5-(3-fluoro, 4-trifluoromethoxy)phenyl biguanide hydrochloride] | 375 | – | 1.7 | – | 242 | 100 |
| 108 | COc1cc(NC(=N)NC(=N)N2CC=CCC2)cc(OC)c1.Cl [Example 38, N1-1,2,3,6-tetrahydropyridine-N5-(3,5-dimethoxy)phenyl biguanide hydrochloride] | 97 | 117 | >50 | 47.8 | – | – |
| 99.8 | CCCNC(=N)NC(=N)N1CC=CCC1.Cl [Example 60, N1-1,2,3,6-tetrahydropyridine-N5-propyl biguanide hydrochloride] | 108 | 338 | 12.4 | 50.1 | – | – |
| 3 | CC1CCCC(C)N1C(=N)NC(=N)Nc1ccc(F)c(C(F)(F)F)c1.Cl (stereo not shown) [Example 93, N1-(2,6-dimethyl)piperidine-N5-(4-fluoro, 3-trifluoromethyl)phenyl biguanide hydrochloride] | 422 | – | 2.0 | – | 190 | 100 |
| 13.9 | CC1=CCN(C(=N)NC(=N)Nc2ccc(Cl)cc2)C1.Cl [Example 17, N1-(3-methyl)-1,2-dihydropyrrole-N5-(4-chloro)phenyl biguanide hydrochloride] | 208 | – | 4.7 | 99.7 | – | – |
| 9.5 | Cl.N=C(NC(=N)N1CC=CCC1)Nc1ccc(C(F)(F)F)cc1 [Example 29, N1-1,2,3,6-tetrahydropyridine-N5-(4-trifluoromethyl)phenyl biguanide hydrochloride] | 551 | – | 1.3 | 100 | – | – |
| 8.3 | Cl.N=C(NC(=N)N1CC=CC1)Nc1ccc(OC(F)(F)F)c(Cl)c1 [Example 10, N1-1,2-dihydropyrrole-N5-(3-chloro,4-trifluoromethoxy)phenyl biguanide hydrochloride] | 408 | – | 1.4 | 97.9 | – | – |
| 11.4 | CC1CCCC(C)N1C(=N)NC(=N)Nc1ccc(C(F)(F)F)cc1.Cl (stereo not shown) [Example 91, N1-(2,6-dimethyl)piperidine-N5-(4-trifluoromethyl)phenyl biguanide hydrochloride] | 214 | – | 5.6 | – | 108 | 100 |
| 45.4 | CC1CCCC(C)N1C(=N)NC(=N)Nc1ccc(F)cc1.Cl (stereo not shown) [Example 98, N1-(2,6-dimethyl)piperidine-N5-(4-fluoro)phenyl biguanide hydrochloride] | 244 | – | 2.8 | – | 239 | 28.2 |
| 10.1 | CC1=CCN(C(=N)NC(=N)Nc2ccc(OC(F)(F)F)cc2)C1.Cl [Example 15, N1-(3-methyl)-1,2-dihydropyrrole-N5-(4-trifluoromethoxy)phenyl biguanide hydrochloride] | 554 | – | 1.6 | 99.2 | – | – |
| 18.3 | CC1CCCN(C(=N)NC(=N)NCc2cccc(C(F)(F)F)c2)C1.Cl (stereo not shown) [Example 65, N1-(3-methyl)piperidine-N5-(3-trifluoromethyl)benzyl biguanide hydrochloride] | 274 | – | 2.8 | – | 147 | 66.7 |
| 18.5 | CC1CCCN(C(=N)NC(=N)NCc2ccc(Cl)cc2)C1.Cl (stereo not shown) [Example 66, N1-(3-methyl)piperidine-N5-(4-chloro)benzyl biguanide hydrochloride] | 204 | – | 6.2 | – | 101 | 67.4 |
| 28.8 | Cl.N=C(NC(=N)N1CC=CC1)Nc1ccc(Br)cc1 [Example 9, N1-1,2-dihydropyrrole-N5-(4-bromo)phenyl biguanide hydrochloride] | 169 | 371 | 9.0 | 99.5 | – | – |
| 84.8 | Cl.N=C(NCc1cccc(C(F)(F)F)c1)NC(=N)N1CC=CC1 [Example 12, N1-1,2-dihydropyrrole-N5-(3-trifluoromethyl)benzyl biguanide hydrochloride] | 97 | 357 | 13.8 | 53.8 | – | – |
